Data: PubChem BioAssay (NCI)
Several values for one entry are separate records, joined by “and”; a condition that tells them apart may be missing. Equal entries are not always repeated.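 Cells were grown in 96-well plates and exposed to each compound for 48 hours at five concentrations; endpoints were interpolated linearly between bracketing concentrations, or set to the highest concentration if not reached. The concentration for 50% growth inhibition is given as GI50. At the TGI there is no net growth.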

Experiments:
Assay in all cases: growth of human tumour cells (NCI), 48 h
OVCAR-8 ovarian = tested on: OVCAR-8 ovarian
RXF 393 renal = tested on: RXF 393 renal
NCI-H460 lung = tested on: NCI-H460 lung
786-0 renal = tested on: 786-0 renal
CCRF-CEM leukemia = tested on: CCRF-CEM leukemia
SR leukemia = tested on: SR leukemia
NCI-H23 lung = tested on: NCI-H23 lung
SK-MEL-2 melanoma = tested on: SK-MEL-2 melanoma
SNB-19 CNS = tested on: SNB-19 CNS
SF-268 CNS = tested on: SF-268 CNS

SMILES | TGI (OVCAR-8 ovarian) [µM] | GI50 (RXF 393 renal) | GI50 (NCI-H460 lung) | TGI (NCI-H460 lung) | TGI (786-0 renal) [µM] | GI50 (CCRF-CEM leukemia) | TGI (CCRF-CEM leukemia) [µM] | GI50 (SR leukemia) | TGI (SR leukemia) | GI50 (NCI-H23 lung) | TGI (NCI-H23 lung) | GI50 (SK-MEL-2 melanoma) | GI50 (SNB-19 CNS) | TGI (SNB-19 CNS) [µM] | TGI (SF-268 CNS) [µM] | GI50 (OVCAR-8 ovarian) | TGI (RXF 393 renal) | GI50 (786-0 renal) [µM] | TGI (SK-MEL-2 melanoma) [µM] | GI50 (SF-268 CNS)
COC(=O)[C@@H](C)C[C@H](Cc1ccccc1)NC(=O)c1csc([C@@H](C[C@H](C(C)C)N(C)C(=O)C2(NC(=O)[C@H]3CCCCN3C)CC2)OC(C)=O)n1 | > 33.3 | 0.0216 µM | 0.0111 µM and 0.00333 µM | > 33.3 µM | > 33.3 | 0.00531 µM and 0.00333 µM | > 33.3 | 0.000486 µM and 0.00333 µM | > 33.3 µM | 0.0172 µM and 0.00333 µM | > 33.3 µM | 0.00411 µM | 0.00824 µM and 0.00333 µM | > 33.3 | > 33.3 | – | – | – | – | –
C=C1CC[C@@H]2[C@](C)(COC(C)=O)[C@H](OC(C)=O)CC[C@@]2(C)[C@@H]1C/C=C1/C(=O)OC[C@H]1OC(C)=O | 22 | 1.95 µM | 18.6 µM | 37.7 µM | 4.34 | 1.12 µM | 5.32 | 2.59 µM | 10.1 µM | 6.22 µM | 23 µM | 10.7 µM | 10.8 µM | 24.5 | 22.8 | 3.38 µM | 4.13 µM | 2.02 | 26.3 | 8.56 µM
CN(C)CCNC(=O)c1cc2c3ccccc3[nH]c2c2ncccc12 | 40.9 | 6.08 µM | 4.17 µM | 18.4 µM | 53.5 | 3.46 µM | 15.8 | 3.34 µM | 13.2 µM | 11.6 µM | 32.6 µM | 9.15 µM | 14.7 µM | 93.2 | 23.7 | 6.11 µM | 20.1 µM | 15.2 | 72.5 | 6.37 µM
CN1CCn2c(c(Sc3ccc(C(=O)NO)cc3)c3ccccc32)C1=O | 6.71 | 1.62 µM | 2.19 µM | 6.58 µM | 3.64 | 1.23 µM | > 27.8 | 2.65 µM | > 100 µM | 1.35 µM | 4.36 µM | 2.01 µM | 2.34 µM | 9.99 | 3.85 | 1.92 µM | 3.17 µM | 1.89 | 4.1 | 1.92 µM
Cc1cccc2c1C/C(=C1\CCc3c(C)cccc31)C2=O | > 100 | – | – | > 100 µM | > 100 | – | > 100 | – | > 100 µM | – | > 100 µM | – | – | > 100 | > 100 | – | > 100 µM | – | > 100 | –
C=C1C(=O)O[C@H]2[C@H]1CC/C(CNS(=O)(=O)c1cccc3ccccc13)=C\CC[C@@]1(C)O[C@@H]21 | 9.16 | 1.26 µM | 4.28 µM | 17 µM | 3.27 | 0.624 µM | 3.82 | 1.31 µM | 6.11 µM | 2.48 µM | 9.12 µM | 5.18 µM | 5.44 µM | 19.8 | 15.1 | 2.52 µM | 2.87 µM | 1.61 | 18.3 | 3.74 µM
Cc1ccc(S(=O)(=O)Nc2nc3ccccc3nc2Nc2ccc3nsnc3c2)cc1 | > 100 | 6.92 µM and 7.73 µM | 3.36 µM and 2.92 µM | 70.7 µM and > 100 µM | > 100 | 3.32 µM and 2.93 µM | > 100 | 7.87 µM and 4.49 µM | 95.4 µM and > 100 µM | 2.78 µM and 2.93 µM | 44.5 µM and > 100 µM | 2.87 µM and 3.22 µM | 3.29 µM and 3.54 µM | > 100 | > 100 | 4.3 µM and 4.19 µM | 35.1 µM and > 100 µM | 3.65 | – | 3.93 µM and 4.35 µM
COc1ccc2c(c1)OC(N)=C(C#N)C2c1ccc(F)cc1 (centres undefined) | > 100 | 2.28 µM | 2.05 µM | > 100 µM | > 100 | 2.31 µM | > 100 | 0.51 µM | > 100 µM | 4.03 µM | > 100 µM | 0.633 µM | 2.25 µM | > 100 | > 100 | 4.49 µM | 17.8 µM | 3.96 | > 100 | 7.38 µM
Oc1ccc(N=Nc2ccc(N=Nc3ccccc3)cc2)cc1 | 24.2 | 14.3 µM | 1.97 µM | 6.16 µM | 6.05 | 0.379 µM | 14 | 1.79 µM | 14 µM | 4.1 µM | 19.5 µM | 2.29 µM | 6.39 µM | 19.7 | 11.8 | 3.2 µM | 61.4 µM | 1.32 | 8.06 | 1.63 µM
CCCN(CCC)C(=O)[C@H](CC)[C@@H]1CC[C@@H](C)[C@@H]([C@H](C)[C@@H](O)[C@@H](C)C(=O)[C@H](CC)C2O[C@]3(C=C[C@@H](O)[C@]4(CC[C@@](C)([C@H]5CC[C@](O)(CC)[C@H](C)O5)O4)O3)[C@H](C)C[C@@H]2C)O1 (some centres undefined) | 24.6 | 1.71 µM | 2.07 µM | 4.62 µM | 9 | 2.78 µM | 8.83 | 2.49 µM | 7.35 µM | 2.52 µM | 7.01 µM | 2.43 µM | 3.36 µM | 59.2 | 22.7 | 3.5 µM | 4.04 µM | 2.79 | 6.63 | 3.43 µM
